Experimental findings from ChEMBL document CHEMBL1649565, “Besifloxacin, a novel fluoroquinolone, has broad-spectrum in vitro activity against aerobic and anaerobic bacteria” (Antimicrob Agents Chemother, 2009) are described below.

Structures are written as SMILES. In brackets after ≈: the same amount, converted by molar mass. Activity calls are given as the source filed them. No cut-off for these calls is given here.

Series [1] is described as follows: Antibacterial activity against Lancefield Streptococcus sp. 'group C' assessed as percent susceptible isolates by CLSI M100-S18 method. The format is functional.
Series [2] is described as follows: Antibacterial activity against Lancefield Streptococcus sp. 'group G' assessed as percent susceptible isolates by CLSI M100-S18 method. The format is functional.
The subject of the next series is Streptococcus sp. The series is described as follows: Antibacterial activity against Lancefield Streptococcus sp. group F assessed as percent susceptible isolates by CLSI M100-S18 method. The format is functional.
A further series concerns Streptococcus agalactiae. The series is described as follows: Antibacterial activity against Streptococcus agalactiae assessed as percent susceptible isolates by CLSI M100-S18 method. The format is functional.
For the next series, the system named is Morganella morganii. As to the kind of experiment: Antibacterial activity against Morganella morganii assessed as percent susceptible isolates by CLSI M7-A7 method. Type of series: functional.
For a further series, the system named is Neisseria meningitidis. The series is described as follows: Antibacterial activity against Neisseria meningitidis assessed as percent susceptible isolates by CLSI M7-A7 method. The format is functional.
The next series relates to Citrobacter koseri. As to the kind of experiment: Antibacterial activity against Citrobacter koseri assessed as percent susceptible isolates by CLSI M7-A7 method. Type of series: functional.
A further series concerns Klebsiella oxytoca. The series is described as follows: Antibacterial activity against Klebsiella oxytoca assessed as percent susceptible isolates by CLSI M7-A7 method. The format is functional.
For another series, the system named is Enterococcus faecium. As to the kind of experiment: Antibacterial activity against vancomycin- resistant Enterococcus faecium assessed as percent susceptible isolates by CLSI M100-S18 method. Type of series: functional.
A further series concerns Enterococcus faecalis. As to the kind of experiment: Antibacterial activity against vancomycin- resistant Enterococcus faecalis assessed as percent susceptible isolates by CLSI M100-S18 method. Type of series: functional.
Another series concerns Bacteroides fragilis. As to the kind of experiment: Antibacterial activity against Bacteroides fragilis assessed as percent susceptible isolates by CLSI M11-A7 method. Type of series: functional.
In the next series the test system is Cutibacterium acnes. As to the kind of experiment: Antibacterial activity against Propionibacterium acnes assessed as percent susceptible isolates by CLSI M11-A7 method. Type of series: functional.
Series [3] has as its system Fusobacterium sp. As to the kind of experiment: Antibacterial activity against Fusobacterium sp. by CLSI M11-A7 method. Type of series: functional.
The next series concerns Prevotella sp. As to the kind of experiment: Antibacterial activity against Prevotella sp. assessed as percent susceptible isolates by CLSI M11-A7 method. The format is functional.
For another series, the system named is Clostridium perfringens. As to the kind of experiment: Antibacterial activity against Clostridium perfringens by CLSI M11-A7 method. The format is functional.
Series [4] is described as follows: Drug concentration in human tears at 0.6% administered topically as single dose measured after 10 mins. Type of series: ADME. The settings on record: topical or ocular, read-out: Drug uptake.
For series [5], the system named is Fusobacterium sp. The series is described as follows: Antibacterial activity against Fusobacterium sp. assessed as percent susceptible isolates by CLSI M11-A7 method. Type of series: functional.

`NC[C@H]1O[C@H](O[C@H]2[C@H](O)[C@@H](O[C@H]3O[C@H](CO)[C@@H](O)[C@H](N)[C@H]3O)[C@H](N)C[C@@H]2N)[C@H](N)C[C@@H]1O` [TOBRAMYCIN]: the Activity in [1] was 74%; in series [2] it was 74%; in the series on Streptococcus sp., 74%; with Streptococcus agalactiae it was 73%.
As for `C[C@H]1COc2c(N3CCN(C)CC3)c(F)cc3c(=O)c(C(=O)O)cn1c23.C[C@H]1COc2c(N3CCN(C)CC3)c(F)cc3c(=O)c(C(=O)O)cn1c23.O` [LEVOFLOXACIN], the Activity is 76.5% in the series on Morganella morganii; 100% with Neisseria meningitidis; 99% in the series on Citrobacter koseri; 90% with Klebsiella oxytoca; 30.9% with Enterococcus faecium; 58.5% with Enterococcus faecalis.
On to `N[C@@H]1CCCCN(c2c(F)cc3c(=O)c(C(=O)O)cn(C4CC4)c3c2Cl)C1` [BESIFLOXACIN], for which the result with Bacteroides fragilis, with Cutibacterium acnes, in the series with Prevotella sp. and in the series with Fusobacterium sp. [5] was inactive. Also, the MIC50 with Fusobacterium sp. [3] and in the series on Clostridium perfringens was 0.25 µg/mL (≈ 0.635 µM) each time. Further, the MIC90 – broadly, an inhibitory concentration at the 90% level, which refers to growth in some studies and to a panel of isolates in others – in the series with Fusobacterium sp. [3] is 1 µg/mL (≈ 2.54 µM); against Clostridium perfringens it was 0.25 µg/mL (≈ 0.635 µM). Further, in series [4], the concentration at 10 min came out at 610 µg/mL.
